Source: patent US20250019344A1, “CREATINE CARBONATE AND METHODS OF PRODUCTION AND USES” (ThermoLife International, LLC, priority 2023, published 2025)

Columns and labels:
Format in all cases: in vivo, human
[1] = Gastrointestinal tolerability after oral creatine supplementation in a subject; conditions: for gastrointestinal side effects: 20 g once per day with 1000 ml of water, monohydrate for 5 consecutive days, carbonate after 14 days washout
Procedure: A subject, trained, was administered 5 g creatine carbonate and monitored for any gastrointestinal tract symptoms. […] In contrast, the subject would develop a bloated stomach with creatine supplements currently on the market.
(§1) At the end on day 5, the subject was able to perform 8 knee extensions at 80% maximum weight (200 lbs.). This was 2 more than their usual 6 extensions with this weight (control). So, creatine supplementation with creatine monohydrate improved the subject's physical performance though with gastrointestinal side effects.
(§2) After a washout period of 14 days, where the subject ingested no creatine supplements, they began a second period of creatine supplementation with 20 g creatine carbonate, also taken once per day with 1000 ml water. […] At the end of the creatine supplementation with creatine carbonate, the subject again evaluated the effect of creatine supplementation with knee extension exercises at 80% maximum weight (200 lbs.). They performed 10 extensions, which was better than either the control or after 5 days of creatine monohydrate supplementation.

[2] = Knee extension exercise at 80% maximum weight after creatine supplementation; conditions: at end of supplementation, 20 g once per day with 1000 ml water; usual 6 extensions (control)
Excerpt: as §1, §2

[3] = Blood lactate after treadmill exercise (Heartscare C1 lactate monitoring system); conditions: person; treadmill 5 miles per hour for 10 minutes, 60 minutes after ingesting 10 g; without supplement 8.1 mmol/L
Procedure: A recreationally active person used the treadmill at 5 miles per hour for 10 minutes and measured their lactate levels using a Heartscare C1 lactate monitoring system. Their blood lactate measured at 8.1 mmol/L. After a two-day washout period, they repeated the same treadmill exercise 60 minutes after ingesting 10 g creatine carbonate. Their blood lactate measured at 7.1 mmol/L. Thus, even without creatine loading, creatine carbonate can reduce lactate production from exercise, as measured by blood lactate level.

Row | Compound | gastrointestinal side effects [1] | knee extensions performed at 80% maximum weight (200 lbs.) [2] | blood lactate [3] [mmol/L] | gastrointestinal tract symptoms ([1]; subject, trained, 5 g administered) | onset of gastrointestinal distress ([1]; up to 20 grams orally administered to subjects)
1 | CN(CC(=O)O)C(=N)N.O [creatine monohydrate, reference compound] | gastrointestinal disturbances, such as diarrhea and stomach bloating, occurred | 8 |  |  | 
2 | CN(CC(=O)O)C(=N)N.O=C(O)O [creatine carbonate] | Besides light belching, no other gastrointestinal side effects were noted | 10 | 7.1 | did not experience any unwanted gastrointestinal tract issues except a little belching | without onset of gastrointestinal distress
